From article PMC4276551 (Journal of the renin-angiotensin-aldosterone system : JRAAS, 2014)
Where a SMILES comes first, the peptide text is derived from it. Where no end group is shown, it is not given here. The star is where a group is joined. Cbz = O=C(OCc1ccccc1)*

What was measured:
[1] = dose higher than the maximal recommended dose for heart failure and hypertension; without a further decline in blood pressure; cited from earlier work
[2] = system: Ang I to Ang-(1–7) converting peptidase activity in isolated nuclei from NRK-52E cells; experiment: Peptide metabolism: generation of Ang-; assay type: biochemical, rat; conditions: 37°C, 125I-Ang I 0.5 nM; SCH39370 10 μM, ZPP 50 μM; HPLC with γ detector
[3] = molecular target: T1, renin (NRK-52E cell nuclei) (Rattus norvegicus, UniProt P08424); experiment: Renin activity assay in nuclear lysate of NRK-52E cells; assay type: biochemical; conditions: basal (control) nuclear lysate, aliskiren 1 μM, 37°C, 90 min; n = 3 passages
T1 sequence (P08424 65-402): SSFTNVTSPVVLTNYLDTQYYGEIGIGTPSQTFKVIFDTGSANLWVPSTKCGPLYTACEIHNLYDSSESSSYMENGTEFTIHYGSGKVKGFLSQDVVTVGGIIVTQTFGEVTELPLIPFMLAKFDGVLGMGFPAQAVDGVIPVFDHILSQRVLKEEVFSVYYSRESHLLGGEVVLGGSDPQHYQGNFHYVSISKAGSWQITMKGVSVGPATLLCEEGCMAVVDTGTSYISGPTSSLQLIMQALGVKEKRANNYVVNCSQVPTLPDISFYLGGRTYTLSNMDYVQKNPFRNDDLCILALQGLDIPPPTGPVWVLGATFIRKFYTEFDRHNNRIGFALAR

(pro)renin receptor = conditions: cited from earlier work
[4] = pH 7.4

Compound: CCOc1nc2cccc(C(=O)O)c2n1Cc1ccc(-c2ccccc2-c2nnn[nH]2)cc1 [candesartan]
- Effect on persistent proteinuria [1]: significantly reduced

Compound: O=C(O)C(O)CNC(=O)[C@H](Cc1ccccc1)NC(CCc1ccccc1)C(=O)O (stereo partly drawn) [SCH39370]
- Effect on generation of Ang-(1–7) in the nuclear extract [2]: did not block

Compound: COCCCOc1cc(C[C@@H](C[C@H](N)[C@@H](O)C[C@H](C(=O)NCC(C)(C)C(N)=O)C(C)C)C(C)C)ccc1OC [aliskiren]
- Reduction of nuclear renin activity [3]: 83%
- Effect on binding of (pro)renin to the receptor ((pro)renin receptor): do not block

Compound: DRVYIHPFHL [Ang I]
- Half-life in nuclear cell extracts [4]: 1.22 h

Compound: O=C[C@@H]1CCCN1C(=O)[C@@H]1CCCN1C(=O)OCc1ccccc1 [ZPP, Z-prolyl prolinal] (Cbz-Pro-Pro-aldehyde)
- Effect on generation of Ang-(1–7) in the nuclear extract [2]: did not block
